US4204065A, “Soft quaternary surface active agents and method of using same” (Interx Research Corporation, priority 1978, dated 1980)
Entries after “also recorded” stand apart in the source; their conditions may differ. Like-named read-outs stand apart in the source and are kept apart here.

Assays:
rat = conditions: cited from earlier work
mouse [1] = conditions: cited from earlier work
mouse [2] = conditions: cited from earlier work; remark: listed apart in the source
B. subtilis = assay: Minimal inhibitory concentration (MIC), B. subtilis; type: cell-based; conditions: Bacillus subtilis; 0.1 M NaH2PO4, pH 7.0
S. typhimirum = assay: Minimal inhibitory concentration (MIC), S. typhimirum; type: cell-based; conditions: 0.1 M NaH2PO4, pH 7.0
S. pyogenes = assay: Minimal inhibitory concentration (MIC), S. pyogenes; type: cell-based; conditions: Streptococcus pyogenes; 0.1 M NaH2PO4, pH 7.0
S. aureus = assay: microbe, parasite or virus in culture; type: cell-based; conditions: Staphylococcus aureus, pH 7, read-out: Minimal inhibitory concentration (MIC), S. aureus
P. aeruginosa = assay: Minimal inhibitory concentration (MIC), P. aeruginosa; type: cell-based; conditions: Pseudomonas aeruginosa; 0.1 M NaH2PO4, pH 7.0
[3] = Saturated solubility (footnote of MIC table); type: physicochemical; conditions: 0.1 M NaH2PO4, pH 7.0; footnote b; read-out: Approximately the saturated solubility
Description: ^b Approximately the saturated solubility.

White Male Mice MCR-ICR = conditions: oral; for Mortality 24 hrs. / Mortality 7 days: deaths of 10 animals per dose
[4] = test system: MCR-ICR White Swiss Male Mice; conditions: mouse; for Mortality 24 hrs. / Mortality 7 days: in vivo
in vivo [5] = conditions: mouse, po
in vivo [6] = conditions: mouse, iv

## CCCCCCCCCCCCCCCC[n+]1ccccc1 [Compound 1, cetylpyridinium chloride]
rat
  LD50 IV: 30 mg/kg
Mouse [1]
  LD50 oral: 108 mg/kg
Mouse [2]
  LD50 IP: 10 mg/kg

## CCCCCCCC(=O)OC[n+]1ccccc1 [Compound 2, n-Octanoyloxymethylpyridinium chloride]
B. subtilis
  MIC: 529 µg/mL
S. typhimirum
  MIC: 1060 µg/mL
S. pyogenes
  MIC: 529 µg/mL
S. aureus
  MIC: 529 µg/mL
P. aeruginosa
  MIC: 1060 µg/mL

## CCCCCCCCCCCC(=O)OC[n+]1ccccc1 [Compound 3, n-Dodecanoyloxymethylpyridinium chloride]
B. subtilis
  MIC: 143 µg/mL
S. typhimirum
  MIC: 35.8 µg/mL
S. pyogenes
  MIC: 71.5 µg/mL
S. aureus
  MIC: 8.9 µg/mL
P. aeruginosa
  MIC: < 2.2 µg/mL

## CCCCCCCCCCCCCC(=O)OC[n+]1ccccc1 [Compound 4, n-Tetradecanoyloxymethylpyridinium chloride]
B. subtilis
  MIC: 8.3 µg/mL
S. typhimirum
  MIC: 133 µg/mL
S. pyogenes
  MIC: 4.2 µg/mL
S. aureus
  MIC: 8.1 µg/mL
P. aeruginosa
  MIC: > 1060 µg/mL

## CCCCCCCCCCCCCCCC(=O)OC[n+]1ccccc1 [Compound 5, n-Hexadecanoyloxymethylpyridinium chloride]
B. subtilis
  MIC: 1070 µg/mL
S. typhimirum
  MIC: 1070 µg/mL
S. pyogenes
  MIC: 268 µg/mL
S. aureus
  MIC: 16.7 µg/mL
P. aeruginosa
  MIC: 1070 µg/mL

## CCCCCCCCCCCC(=O)OC[n+]1ccn(C)c1 [Compound 6]
B. subtilis
  MIC: 16.3 µg/mL
S. typhimirum
  MIC: 65.3 µg/mL
S. pyogenes
  MIC: 2 µg/mL
S. aureus
  MIC: 4.1 µg/mL
P. aeruginosa
  MIC: 261 µg/mL

## CCCCCCCCCCCCCC(=O)OC[n+]1ccn(C)c1 [Compound 7]
B. subtilis
  MIC: 4.4 µg/mL
S. typhimirum
  MIC: 69.7 µg/mL
S. pyogenes
  MIC: > 2.2 µg/mL
S. aureus
  MIC: < 2.2 µg/mL
P. aeruginosa
  MIC: > 1120 µg/mL

## CCCCCCCCCCCCCCCC(=O)OC[n+]1ccn(C)c1 [Compound 8]
B. subtilis
  MIC: > 42.4 µg/mL
S. typhimirum
  MIC: > 42.4 µg/mL
S. pyogenes
  MIC: > 42.4 µg/mL
S. aureus
  MIC: 1.3 µg/mL
[3]
  solubility: ~42.4 µg/mL
P. aeruginosa
  MIC: > 42.4 µg/mL

## CCCCCCCCCCCC(=O)OC[n+]1ccn(C)c1 [IRx-1229]
White Male Mice MCR-ICR; 1.68 g/kg
  Deaths per day, Day 1: 0
  Deaths per day, Day 2: 1
  Mortality 24 hrs.: 0
  Mortality 7 days: 1
White Male Mice MCR-ICR; 3.35 g/kg
  Deaths per day, Day 1: 2
  Deaths per day, Day 3: 1
  Mortality 24 hrs.: 2
  Mortality 7 days: 3
White Male Mice MCR-ICR; 5.00 g/kg
  Deaths per day, Day 1: 7
  Mortality 24 hrs.: 7
  Mortality 7 days: 7
[4]; IV
  Symptoms: time of death: Death either occurred immediately after injection or several day later, never between 5 minutes and 24 hours after injection
[4]; IV, death immediately following injection
  Symptoms: cause and signs of immediate death: circulatory collapse because of too large an injection or precipitation of the compound in the bloodstream; also recorded: death was preceded by convulsions
[4]; 133 mg/kg
  Mortality 24 hrs.: 1/3
  Mortality 7 days: 1/3
[4]; iv, 35.09 mg/kg
  Mortality 24 hrs.: 0/5
  Mortality 7 days: 0/5
[4]; iv, 42.5 mg/kg
  Mortality 24 hrs.: 0/5
  Mortality 7 days: 0/5
[4]; iv, 81.25 mg/kg
  Mortality 24 hrs.: 1/2
  Mortality 7 days: 1/2
[4]; iv, 87.73 mg/kg
  Mortality 24 hrs.: 2/4
  Mortality 7 days: 2/4
[4]; iv, 102.47 mg/kg
  Mortality 24 hrs.: 0/8
  Mortality 7 days: 1/8
[4]; iv, 199.5 mg/kg
  Mortality 24 hrs.: 1/1
  Mortality 7 days: 1/1
In vivo [5]
  LD50 at 24 h: 4300 mg/kg
  LD50 at 168 h: 4110 mg/kg
In vivo [6]
  LD50 at 24 h: 100 to 133 mg/kg
